Laboratory results taken from patent US11912705B2, “Cathinone derivatives, pharmaceutical formulations, and methods” (The Corporation of Mercer University, priority 2020, dated 2024).
pIC50, pKi: −log10 of the molar value. Where “and” joins values, the source holds several entries; their conditions need not be identical. Equal values may be shown once. Read-outs that look alike come from different tables or passages of the source.

Columns and labels:
[1] = biological target: T1, Dopamine transporter (h) (Homo sapiens, UniProt Q01959); assay: Dopamine transporter (h) (antagonist radioligand) competition binding; conditions: for nH: Dopamine transporter (h) (antagonist radioligand)
T1 construct: Eurofins/Cerep (contract testing)
Protocol: (§1) Compounds (1) and (2) were tested at several concentrations for IC50 or EC50 determination at target receptors. […] For antagonist assays, Kb affinity values were calculated from IC50 values using GraphPad Prism 9 (San Diego, Calif. USA).

[2] = biological target: T2, Norepinephrine transporter (h) (Homo sapiens, UniProt P23975); assay: Norepinephrine transporter (h) (antagonist radioligand) competition binding; conditions: for nH: Norepinephrine transporter (h) (antagonist radioligand)
T2 construct: Eurofins/Cerep (contract testing)
Protocol: For antagonist assays, Kb affinity values were calculated from IC50 values using GraphPad Prism 9 (San Diego, Calif. USA).

[3] = biological target: T3, 5-HT transporter (h) (Homo sapiens, UniProt P31645); assay: Serotonin transporter (antagonist radioligand) competition binding; conditions: for Affinity (Ki) SERT: Eurofins/Cerep, N.B. denotes no binding at 100 μM
T3 construct: Eurofins/Cerep (contract testing)
Protocol: as §1

[4] = biological target: T4, Dopamine transporter (Homo sapiens, UniProt Q01959); assay: Dopamine transporter uptake (h); assay type: cell-based
T4 construct: Eurofins/Cerep (contract testing)
Protocol: as §1

[5] = biological target: T5, Serotonin transporter (Rattus norvegicus, UniProt P31652); assay: Serotonin transporter uptake (rat brain synaptosomes); assay type: biochemical
T5 construct: tissue Eurofins/Cerep (contract testing); host or cells: rat brain synaptosomes (per the earlier reading)
Protocol: as §1

[6] = biological target: T6, human M1R (Homo sapiens, UniProt P11229); assay: biochemical; assay type: binding
T6 construct: host or cells: HEK293 (CRL-1573, ATCC), transient
T6 sequence (P11229 1-460): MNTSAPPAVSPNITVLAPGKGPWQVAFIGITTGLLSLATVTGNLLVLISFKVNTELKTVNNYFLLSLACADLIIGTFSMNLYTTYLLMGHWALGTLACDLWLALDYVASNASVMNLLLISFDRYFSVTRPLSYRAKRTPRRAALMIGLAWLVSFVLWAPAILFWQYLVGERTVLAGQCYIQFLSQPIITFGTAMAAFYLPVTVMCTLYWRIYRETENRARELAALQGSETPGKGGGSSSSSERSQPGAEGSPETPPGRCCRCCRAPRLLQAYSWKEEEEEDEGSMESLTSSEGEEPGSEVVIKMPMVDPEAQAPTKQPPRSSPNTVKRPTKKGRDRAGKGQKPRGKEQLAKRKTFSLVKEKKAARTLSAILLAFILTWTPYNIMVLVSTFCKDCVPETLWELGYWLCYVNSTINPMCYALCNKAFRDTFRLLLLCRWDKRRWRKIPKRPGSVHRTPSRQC
Protocol: (§2) Radioligand Competition Binding: Radioligand competition binding assays were conducted using membranes collected from transiently transfected HEK293 cells (P<20 from a procured stock, CRL-1573, ATCC, Manassas, Va., USA) as previously described (Chen, Y., et al. Drug Test Anal 11, 990-998). Briefly, cells ˜90% confluent in 10 cm plates were transfected with 5 μg human M1R, M2R, M3R, M4R or […] cDNA (cDNA resource center, Bloomsburg, Pa., USA) using a lipid-based method (LipoD293 reagent, SignaGen Laboratories, Rockville, Md., USA). Membranes were collected by centrifugation about 48 hours later and stored at −80° C. until used. […] After a 90-minute incubation at room temperature on a shaker, contents from the plates were rapidly filtered through GF/B fiberglass filter mats, pre-soaked with ice cold 50 mM Tris buffer (pH 7.4), using a Microbeta Filtermat-96 cell harvester (Perkin Elmer, Waltham, Mass., USA). Approximately 200 mL of ice cold, 50 mM Tris buffer was then vacuumed through filter mats to wash away unbound radioligand. Filter mats were dried on a hot plate and soaked in Betaplate (Perkin Elmer, Waltham, Mass., USA) scintillation fluid in plastic bags. Bags were sealed and placed in cassettes. Radioactivity was measured in a Microbeta2 Microplate Counter (Perkin Elmer, Waltham, Mass., USA), and counts per minute corresponding to each well on the plates were recorded. For full dose-response competition binding assays, increasing half-log unit concentrations of five unsubstituted PSCs were tested at M2Rs and M1Rs, with the same procedures described above.
(§3) Curve Fitting and Statistical Analyses: All data were analyzed by GraphPad 8.3.0 (San Diego, Calif., USA). Ki values were determined from data fit to both one- and two-site models. […] EC50 and IC50 values from functional assays were determined from data fit to the log(agonist) vs. response (three parameters) or log(inhibitor) vs. response (three parameters) model, respectively. Kb values were calculated from IC50 values using the Cheng-Prusoff equation with modification (see, e.g., Leff, P., and Dougall, I. G. (1993) Trends Pharmacol Sci 14, 110-112): Kb=IC50/((2+([A]/[A50])nH)1/nH−1)

[7] = biological target: T7, human M3R (Homo sapiens, UniProt P20309); assay: biochemical; assay type: binding
T7 construct: host or cells: HEK293 (CRL-1573, ATCC), transient
Protocol: as §2, §3

[8] = biological target: T8, human M2R (Homo sapiens, UniProt P08172); assay: [3H]Scopolamine radioligand competition binding at M2R; conditions: for Ki: Affinities, Ki ± SEM, nM M2, human muscarinic M2 (N = 9), [3H]-N-methylscopolamine; for M2 Selectivity: range of Ki ratios of M1, M3, M4, M5 versus M2
T8 construct: host or cells: HEK293 (CRL-1573, ATCC), transient
T8 sequence (P08172 1-466): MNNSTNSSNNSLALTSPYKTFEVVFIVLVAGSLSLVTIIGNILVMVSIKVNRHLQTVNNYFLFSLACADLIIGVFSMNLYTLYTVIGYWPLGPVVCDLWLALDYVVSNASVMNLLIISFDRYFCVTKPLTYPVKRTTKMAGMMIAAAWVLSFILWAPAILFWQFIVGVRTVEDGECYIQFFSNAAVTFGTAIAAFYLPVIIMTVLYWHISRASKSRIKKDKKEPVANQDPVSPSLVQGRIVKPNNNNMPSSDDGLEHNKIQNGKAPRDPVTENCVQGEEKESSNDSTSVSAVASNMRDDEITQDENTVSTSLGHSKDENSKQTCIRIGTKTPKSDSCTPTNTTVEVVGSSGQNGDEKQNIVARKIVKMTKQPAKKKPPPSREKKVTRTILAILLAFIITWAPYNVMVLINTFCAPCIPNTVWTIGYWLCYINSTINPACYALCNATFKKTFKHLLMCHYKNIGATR
Protocol: as §2, §3

[9] = test system: mice on the FVB background; assay: Open field locomotor activity in mice; assay type: in vivo; conditions: 2.8 mg/kg, s.c., 20-min open field
Protocol: Since functional inhibition of neurotransmitter transporters, particularly DAT, is classically known to cause psychomotor stimulation, the ability of Compound (1) to induce this effect in mice was assessed, directly comparing results to α-PHP, a pyrrolidine-substituted analog of Compound (1). Adult male and female mice on the FVB background were injected subcutaneously and then immediately placed inside of an open field chamber, where their activity was recorded automatically for 20-min by an overhead camera connected to a PC running EthoVision XT software. […] Data are means (±SEM).

[10] = human muscarinic M1 (N = 6), [3H]-N-methylscopolamine, read-out: Affinities, Ki ± SEM, nM M1
[11] = human muscarinic M3 (N = 5), [3H]-N-methylscopolamine, read-out: Affinities, Ki ± SEM, nM M3

T2 sequence (P23975 whole entry): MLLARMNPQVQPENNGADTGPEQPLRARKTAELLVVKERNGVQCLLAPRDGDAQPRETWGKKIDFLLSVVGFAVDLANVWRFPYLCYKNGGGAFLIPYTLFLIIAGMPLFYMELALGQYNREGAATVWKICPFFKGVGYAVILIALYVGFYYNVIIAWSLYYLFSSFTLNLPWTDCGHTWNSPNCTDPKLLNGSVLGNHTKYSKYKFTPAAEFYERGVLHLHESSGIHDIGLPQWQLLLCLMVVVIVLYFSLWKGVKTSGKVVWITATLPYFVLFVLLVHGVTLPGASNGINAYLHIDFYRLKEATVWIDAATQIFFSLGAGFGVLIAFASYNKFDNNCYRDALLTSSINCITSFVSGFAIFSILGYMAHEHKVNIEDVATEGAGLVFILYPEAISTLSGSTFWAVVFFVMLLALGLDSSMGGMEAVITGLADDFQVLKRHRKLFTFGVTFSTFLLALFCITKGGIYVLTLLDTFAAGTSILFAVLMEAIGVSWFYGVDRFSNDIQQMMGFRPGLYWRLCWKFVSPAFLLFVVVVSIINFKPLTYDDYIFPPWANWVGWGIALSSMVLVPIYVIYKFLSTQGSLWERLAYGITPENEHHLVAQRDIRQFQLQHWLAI
T1 sequence (Q01959 whole entry): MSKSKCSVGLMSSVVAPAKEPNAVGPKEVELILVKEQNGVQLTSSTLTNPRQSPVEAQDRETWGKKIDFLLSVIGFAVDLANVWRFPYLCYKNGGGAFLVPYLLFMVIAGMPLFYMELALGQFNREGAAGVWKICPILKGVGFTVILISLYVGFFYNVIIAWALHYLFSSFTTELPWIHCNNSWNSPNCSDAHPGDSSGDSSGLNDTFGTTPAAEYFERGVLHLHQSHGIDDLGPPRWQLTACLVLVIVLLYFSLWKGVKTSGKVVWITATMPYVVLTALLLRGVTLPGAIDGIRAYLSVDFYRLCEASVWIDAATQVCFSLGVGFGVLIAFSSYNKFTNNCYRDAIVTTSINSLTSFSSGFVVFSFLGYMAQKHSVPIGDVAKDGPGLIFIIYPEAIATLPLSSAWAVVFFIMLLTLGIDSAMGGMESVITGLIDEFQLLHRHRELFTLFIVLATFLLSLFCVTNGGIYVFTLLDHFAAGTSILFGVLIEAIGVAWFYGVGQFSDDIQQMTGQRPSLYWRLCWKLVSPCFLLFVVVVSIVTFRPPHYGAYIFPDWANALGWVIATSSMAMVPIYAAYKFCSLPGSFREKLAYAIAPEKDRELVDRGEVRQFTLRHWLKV
T3 sequence (P31645 whole entry): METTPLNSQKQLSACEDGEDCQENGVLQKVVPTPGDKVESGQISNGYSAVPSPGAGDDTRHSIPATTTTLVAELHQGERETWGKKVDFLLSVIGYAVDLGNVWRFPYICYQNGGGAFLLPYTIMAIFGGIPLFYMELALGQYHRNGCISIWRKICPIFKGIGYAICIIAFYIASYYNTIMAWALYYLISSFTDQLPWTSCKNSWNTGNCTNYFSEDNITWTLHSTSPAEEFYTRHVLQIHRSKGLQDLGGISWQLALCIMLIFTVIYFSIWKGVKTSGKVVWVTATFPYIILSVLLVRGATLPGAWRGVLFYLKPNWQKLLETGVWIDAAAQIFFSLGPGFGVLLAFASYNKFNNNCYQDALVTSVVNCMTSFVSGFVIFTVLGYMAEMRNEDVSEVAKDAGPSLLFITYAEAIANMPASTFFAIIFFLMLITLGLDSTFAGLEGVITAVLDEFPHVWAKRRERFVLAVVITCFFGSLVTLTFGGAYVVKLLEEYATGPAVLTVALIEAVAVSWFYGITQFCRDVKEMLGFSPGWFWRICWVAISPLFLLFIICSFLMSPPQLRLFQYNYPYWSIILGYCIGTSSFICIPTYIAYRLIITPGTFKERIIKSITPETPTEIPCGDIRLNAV
T7 sequence (P20309 whole entry): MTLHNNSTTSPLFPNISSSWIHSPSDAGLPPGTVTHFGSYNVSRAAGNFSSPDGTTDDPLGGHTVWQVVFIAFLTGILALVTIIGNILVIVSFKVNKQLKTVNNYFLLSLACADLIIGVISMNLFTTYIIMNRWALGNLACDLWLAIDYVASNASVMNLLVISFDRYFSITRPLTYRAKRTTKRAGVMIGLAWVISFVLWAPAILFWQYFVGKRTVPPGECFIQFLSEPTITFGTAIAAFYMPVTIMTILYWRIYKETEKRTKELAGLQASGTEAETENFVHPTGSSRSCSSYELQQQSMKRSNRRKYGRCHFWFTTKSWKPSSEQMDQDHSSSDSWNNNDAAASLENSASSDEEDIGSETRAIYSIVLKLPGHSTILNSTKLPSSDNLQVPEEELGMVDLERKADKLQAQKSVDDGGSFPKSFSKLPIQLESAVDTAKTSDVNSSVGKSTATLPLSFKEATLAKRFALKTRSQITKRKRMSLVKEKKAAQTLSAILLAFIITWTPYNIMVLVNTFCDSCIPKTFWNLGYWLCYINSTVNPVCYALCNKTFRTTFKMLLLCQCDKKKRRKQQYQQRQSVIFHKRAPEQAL
T5 sequence (P31652 whole entry): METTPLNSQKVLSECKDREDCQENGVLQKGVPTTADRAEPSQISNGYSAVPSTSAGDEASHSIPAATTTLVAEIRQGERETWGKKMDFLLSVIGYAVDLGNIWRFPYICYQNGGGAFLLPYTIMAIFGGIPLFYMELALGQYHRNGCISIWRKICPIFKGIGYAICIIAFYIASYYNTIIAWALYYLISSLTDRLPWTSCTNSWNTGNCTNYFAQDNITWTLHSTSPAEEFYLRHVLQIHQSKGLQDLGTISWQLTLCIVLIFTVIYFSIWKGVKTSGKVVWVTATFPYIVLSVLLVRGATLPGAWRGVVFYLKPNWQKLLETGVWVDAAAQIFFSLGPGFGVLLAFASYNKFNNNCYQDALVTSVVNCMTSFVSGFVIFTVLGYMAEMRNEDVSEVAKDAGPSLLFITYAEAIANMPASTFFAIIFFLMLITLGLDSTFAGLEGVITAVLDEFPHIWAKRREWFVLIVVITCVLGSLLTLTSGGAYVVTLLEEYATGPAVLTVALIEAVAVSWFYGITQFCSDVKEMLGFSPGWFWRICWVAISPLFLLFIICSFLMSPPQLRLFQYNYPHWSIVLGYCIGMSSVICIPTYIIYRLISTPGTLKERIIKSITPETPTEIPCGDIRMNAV
T4 sequence (Q01959 whole entry): as the sequence (Q01959 whole entry) above

SMILES | pIC50 [1] | pKi [1] | nH [1] | pIC50 [2] | pKi [2] | nH [2] | pIC50 [3] | Affinity (Ki) SERT [3] | pIC50 [4] | pIC50 [5] | Ki [6, 10] [nM] | Ki [7, 11] [nM] | Ki [8] | M2 Selectivity [8] | locomotor activity [9] | other results
CCCCC(C(=O)c1ccccc1)N1CCCCC1 (stereo not drawn) [Compound (1), 1-phenyl-2-(piperidin-1-yl)hexan-1-one] | 7.14 | 7.42 | 1 | 5.06 | 5.19 | 1.6 | < 4.00 | neither compound exhibiting demonstrable binding at SERT | 7.33 | 4.43 | 1010 | 994 | 70 nM and 69.9 nM | 9.72-17.76 | nearly indistinguishable from vehicle-treated mice | Affinity (Ki) SERT ([3]; listed as Compound 1): N.B.
CCCCC(C(=O)c1ccccc1)N1CCCCCC1 (stereo not drawn) [Compound (2), 2-(azepan-1-yl)-1-phenylhexan-1-one] | 7.00 | 7.27 | 0.9 | 4.89 | 5.01 | 0.9 | < 4.00 | neither compound exhibiting demonstrable binding at SERT | 7.15 | 4.92 | 1490 | 988 | 90 nM and 89.5 nM | 11.04-16.63 | – | Affinity (Ki) SERT ([3]; listed as Compound 2): N.B.
CCCCC(C(=O)c1ccccc1)N1CCCC1 (stereo not drawn) [α-PHP, 1-phenyl-2-(pyrrolidin-1-yl)hexan-1-one] | – | – | – | – | – | – | – | – | – | – | – | – | – | – | robustly increased locomotor activity compared to vehicle | fold increase in M1R affinity from α-PPP [6]: 121 fold; Ki ([6]; estimate from 1 and 10 μM concentrations (N = 2), N.C. = <5% displacement of radioligand at 10 μM, read-out: estimated pKi at M1R (converted)): 2570 nM; Ki ([6]; full dose-response [3H]Scopolamine competition binding, α-PPP and α-PBP interpolated, read-out: pKi at M1R (converted)): 1580 nM; Ki ([7]; estimate from 1 and 10 μM concentrations (N = 2), N.C. = <5% displacement of radioligand at 10 μM, read-out: estimated pKi at M3R (converted)): 1660 nM; fold increase in M2R affinity compared to α-PPP [8]: 302 fold; pKi ([8]; Ki at M2Rs, full dose-response [3H]Scopolamine competition binding): 6.60; pKi ([8]; estimated pKi at M2R, estimate from 1 and 10 μM concentrations (N = 2), N.C. = <5% displacement of radioligand at 10 μM): 6.33
